# In US9340572B2, “Taccalonolide microtubule stabilizers” (THE BOARD OF REGENTS OF THE UNIVERSITY OF TEXAS SYSTEM, priority 2011, dated 2016):
# Assays:
# [1] = system: isogenic HeLa-derived cell line that expresses the βIII isotype of tubulin; details: cited from earlier work
# HeLa cells = assay: Cell cycle distribution by flow cytometry; details: 18 h; 125 nM AF, 200 nM AI, 35 nM AJ
smiles,measurement,setting,value
CC(=O)O[C@H]1C(=O)[C@@]2(C)[C@H]([C@H](OC(=O)c3ccccc3)[C@]3(O)C[C@H](OC(=O)[C@H](O)[C@@H](NC(=O)c4ccccc4)c4ccccc4)C(C)=C1C3(C)C)[C@]1(OC(C)=O)CO[C@@H]1C[C@@H]2O [paclitaxel],sensitivity of βIII-tubulin-overexpressing cell line compared with parental HeLa cells,[1],less sensitive
same,effect on cell cycle distribution / mitotic progression,HeLa cells,mitotic arrest
